# In paper PMC6222829, “Synthesis, Molecular Docking and Anticancer Activity of Diflunisal Derivatives as Cyclooxygenase Enzyme Inhibitors” (Molecules : A Journal of Synthetic Chemistry and Natural …, 2018):
# Entries after “also recorded” stand apart in the source; their conditions may differ.
# Key:
# [1] = test system: PC-3 cell line; test: MTS cytotoxicity assay, PC-3; format: cell-based, human; set-up: key to IC50 PC-3: PCV: Promoting cell viability; NSC: No significant change; conditions: for IC50 PC-3 / IC50: MTS assay, 72 h incubation; for IC50: Homo sapiens, PC-3
# Description: (§1) In this project, the colorectal cancer cell line HCT116 (ATCC® CCL-247™), […] prostate cancer cell line PC-3 (ATCC® CRL-1435™), breast cancer cell lines T47D (ATCC® HTB-133™), MCF7 (ATCC® HTB-22™) and finally, epithelial embryonic kidney cell line HEK293 (ATCC® CRL-1573™) were used. All media were completed with %10 fetal bovine serum (FBS) and %1 penicillin streptomycin amphotericin (PSA). All cells were cultured periodically at 37 °C, 5% (v/v) CO2 and 95% (v/v) air in T-75 flasks. Different media were used for the different cell lines based on ATCC standards: MCF7 and HEK293 cell lines were cultured in DMEM High Mmedium (ATCC, 30-2003); T47D and PC-3 cell lines were cultured in RPM 1640 medium (ATCC, 30-2001); HCT116 cell line was cultured in DMEM F12 medium (ATCC, 30-2006). RPM 1640 medium was further completed with 0.2 unit/mL bovine insulin for the T47D cell line. Cells were passaged when they reached %80 confluency in order to support proliferation.
# (§2) The effects of the synthesized compounds on the cell viability were tested. Stock solutions for each compound were prepared by measuring 20 mg of each compound and dissolving it in 1 mL DMSO to a final concentration of […], followed by filtration through a 0.2-μm filter (Sartorius AG, Gottingen, Germany). Then stock solutions were diluted as 1/10, 1/100 and 1/1000 in the designated media and applied on the cell lines. In order to determine the effect of DMSO itself, the same dilutions were performed by using DMSO, only and applied on the cell lines. Cell densities used for each cell line in 96 well plate were as follows: for PC-3, HCT116 and HEK293 cell lines 5000 cells/well; for T47D cell lines 20,000 cells/well. Cell viability was measured by the MTS cytotoxicity assay (CellTiter96 AqueousOne Solution; Promega, Southampton, UK) according to the manufacturer’s instructions. 3-(4,5-Dimethylthiazol-2-yl)-5-(3-carboxymethoxyphenyl)-2-(4-sulfo-phenyl)-2H-tetrazolium (MTS) is a yellow tetrazolium salt which is catabolized to formazan by dehydrogenase enzyme in the mitochondria of the living cells. Formazan is a purple compound and the detection in this assay is based on the measurement of formazan compounds by an ELISA plate reader. After incubating the cells for 72 h, 10 µL MTS reagent and 100 µL designated medium was given to the cells followed by 2 h of incubation at 37 °C. Thereafter, the absorbance at 490 nm was measured by an ELISA plate reader. (BioTek Instruments, Inc., Winooski, VT, USA). The activity doses of the compounds were determined according to 50% cell death rate when compared to DMSO, only after 72 h of incubation. […] IC50 values are calculated by the GraphPad prism software.
# [2] = test system: T47D cell line; test: MTS cytotoxicity assay, T47D; format: cell-based, human; set-up: key to IC50 T47D: PCV: Promoting cell viability; NSC: No significant change; conditions: for IC50 T47D / IC50: MTS assay, 72 h incubation; for IC50: Homo sapiens, T47D
# Description: as §1, §2
# [3] = test system: HEK293 cell line; test: MTS cytotoxicity assay, HEK293; format: cell-based, human; conditions: normal cell line; for IC50: Homo sapiens, HEK293, MTS assay, 72 h incubation
# Description: as §1, §2
# [4] = test system: HEK293 cell line; test: Annexin V/PI apoptosis assay, HEK293; format: cell-based; conditions: FITC-Annexin V/PI flow cytometry
# Description: (§3) Evaluation of the effect of the synthesized compounds on apoptosis was determined by the FITCH-AnnexinV/PI protocol. Damaged cell membrane of necrotic cell enables propidium iodide (PI) to bind DNA and induces a red fluorescence, although it is excluded by non-damaged cells, select live and apoptotic cells. FITCH-Annexin V has the ability to bind to phosphatidylserine which is a specific marker of apoptosis. […] The lower left panel of the quadrant of the cytograms indicates live cells due to exclusion of PI and non-bound Annexin V.
# (§4) The upper left panel of the cytogram represents necrotic cells which are positive for PI. Each cytogram of each cell was analyzed and a histogram graph was drawn for further visual information.
# Determination of IC50 values was followed by the investigation of effect of the synthesized compounds on apoptosis. Cells were seeded into six well plates at densities of 15,000 cells/well (PC-3, HCT116 and HEK293 cell lines) and 60,000 cells/well (T47D cell lines). After the treatment cells were harvested and washed with ice cold PBS. 1 × Annexin-binding buffer was prepared while the cells were being washed. Working solution of PI (100 µg/mL) was prepared as well by diluting 5 µL of the 1 mg/mL PI stock solution in 45 µL 1 × Annexin-binding buffer. After the precipitation of the cells, they were resuspended in 500 µL 1 × Annexin-binding buffer. Resuspended cells were separated into four groups (Annexin V, PI, Annexin V + PI and NC) each containing 100 µL of suspension. Five µL of the Annexin V conjugate was added to the proper groups. Samples were incubated for 15 min at room temperature. The incubation step was followed by adding 2 µL of the 100 µg/mL PI working solution to the proper groups then the fluorescence was observed by flow cytometry.
# [5] = test system: PC-3 cell line; test: Annexin V/PI apoptosis assay, PC-3; format: cell-based, human; conditions: FITC-Annexin V/PI flow cytometry
# Description: as §3, §4
# (§5) Determination of IC50 values was followed by the investigation of effect of the synthesized compounds on apoptosis. Cells were seeded into six well plates at densities of 15,000 cells/well (PC-3, HCT116 and HEK293 cell lines) and 60,000 cells/well (T47D cell lines). After the treatment cells were harvested and washed with ice cold PBS. 1 × Annexin-binding buffer was prepared while the cells were being washed. […] The incubation step was followed by adding 2 µL of the 100 µg/mL PI working solution to the proper groups then the fluorescence was observed by flow cytometry.
# [6] = test system: HCT116 cell line; test: MTS cytotoxicity assay, HCT116; format: cell-based, human; conditions: for IC50: Homo sapiens, HCT-116, MTS assay, 72 h incubation
# Description: as §1, §2
# [7] = test system: MCF7 cell line; test: MTS cytotoxicity assay, MCF7; format: cell-based; conditions: Homo sapiens, 72 h incubation
# Description: as §1, §2
# [8] = test system: T47D cell line; test: Annexin V/PI apoptosis assay, T47D; format: cell-based, human; conditions: FITC-Annexin V/PI flow cytometry
# Description: as §3, §4, §5
# [9] = test system: HCT116 cell line; test: Annexin V/PI apoptosis assay, HCT116; format: cell-based, human; conditions: FITC-Annexin V/PI flow cytometry
# Description: as §3, §4, §5
SMILES,IC50 [3] [µM],IC50 [1] [µM],IC50 [2] [µM],cytotoxic effect on HEK293 (in words) [3],"apoptosis / necrosis, HEK293 [4]",IC50 [7] [µM],further results
O=C(NNC(=S)Nc1cccc(F)c1)c1cc(-c2ccc(F)cc2F)ccc1O [Compound 4],617,,,,,,IC50 PC-3 [1]: PCV; IC50 T47D [2]: PCV
O=C(NNC(=S)Nc1cccc(Cl)c1)c1cc(-c2ccc(F)cc2F)ccc1O [Compound 5],44.4,,,,,,
"O=C(NNC(=S)Nc1cccc(Br)c1)c1cc(-c2ccc(F)cc2F)ccc1O [Compound 6, N-(3-Bromophenyl)-2-[(2′,4′-difluoro-4-hydroxybiphenyl-3-yl)carbonyl]hydrazine carbothioamide]",93 ± 3.43,41.8 ± 3.4,100 ± 2.3,did not show cytotoxic effects,did not result in apoptosis,,"anticancer activity against PC-3 (in words) [1]: displayed anti-tumourigenic activity; apoptosis / necrosis, PC-3 [5]: increase of late apoptosis markers; also recorded: undergo apoptosis highly"
"O=C(NNC(=S)Nc1ccc(Br)cc1)c1cc(-c2ccc(F)cc2F)ccc1O [Compound 7, N-(4-Bromophenyl)-2-[(2′,4′-difluoro-4-hydroxybiphenyl-3-yl)carbonyl]hydrazine carbothioamide]",3.17 ± 1.06,11.7 ± 4.2,16.7 ± 2.8,,,,
"O=C(NC(=S)NNC(=O)c1cc(-c2ccc(F)cc2F)ccc1O)c1ccccc1 [Compound 8, N-({2-[(2′,4′-Difluoro-4-hydroxybiphenyl-3-yl)carbonyl]hydrazinyl}carbonothioyl)benzamide]",5.04 ± 1.5,2.85 ± 3.6,8.07 ± 2,,,,IC50 [6]: 3.68 ± 2.1 µM
"COc1ccccc1NC(=S)NNC(=O)c1cc(-c2ccc(F)cc2F)ccc1O [Compound 9, 2-[(2′,4′-Difluoro-4-hydroxybiphenyl-3-yl)carbonyl]-N-(2-methoxyphenyl)hydrazine carbothioamide]",3.02 ± 1.9,1.57 ± 1.4,3.86 ± 0.7,,,3.92 ± 0.27,IC50 [6]: 1.83 ± 0.92 µM
"CCc1ccc(NC(=S)NNC(=O)c2cc(-c3ccc(F)cc3F)ccc2O)cc1 [Compound 10, 2-[(2′,4′-Difluoro-4-hydroxybiphenyl-3-yl)carbonyl]-N-(4-ethylphenyl)hydrazine carbothioamide]",94 ± 3.74,11.7 ± 2.6,,did not show cytotoxic effects,slight insignificant increase in necrosis; also recorded: did not result in apoptosis,,"anticancer activity against PC-3 (in words) [1]: displayed anti-tumourigenic activity; IC50 T47D [2]: NSC; apoptosis / necrosis, PC-3 [5]: increase of late apoptosis markers; also recorded: undergo apoptosis highly"
"CCCn1c(-c2cc(-c3ccc(F)cc3F)ccc2O)n[nH]c1=S [Compound 11, 5-(2′,4′-Difluoro-4-hydroxybiphenyl-3-yl)-4-propyl-2,4-dihydro-3H-1,2,4-triazole-3-thione]",11.5 ± 0.2,174 ± 6.3,10.1 ± 1.57,,,22.2 ± 2.3,
"Oc1ccc(-c2ccc(F)cc2F)cc1-c1n[nH]c(=S)n1-c1cccc(F)c1 [Compound 12, 5-(2′,4′-Difluoro-4-hydroxybiphenyl-3-yl)-4-(3-fluorophenyl)-2,4-dihydro-3H-1,2,4-triazole-3-thione]",10.7 ± 0.96,34 ± 2.1,9.24 ± 1.01,,,15 ± 1.3,
"Oc1ccc(-c2ccc(F)cc2F)cc1-c1n[nH]c(=S)n1-c1cccc(Cl)c1 [Compound 13, 4-(3-Chlorophenyl)-5-(2′,4′-difluoro-4-hydroxybiphenyl-3-yl)-2,4-dihydro-3H-1,2,4-triazole-3-thione]",8.7 ± 1.79,34.1 ± 3.7,5.55 ± 2.7,,,12.9 ± 2.1,
"Oc1ccc(-c2ccc(F)cc2F)cc1-c1n[nH]c(=S)n1-c1cccc(Br)c1 [Compound 14, 4-(3-Bromophenyl)-5-(2′,4′-difluoro-4-hydroxybiphenyl-3-yl)-2,4-dihydro-3H-1,2,4-triazole-3-thione]",,,11.5 ± 1.8,,,,IC50 PC-3 [1]: PCV
"Oc1ccc(-c2ccc(F)cc2F)cc1-c1n[nH]c(=S)n1-c1ccc(Br)cc1 [Compound 15, 4-(4-Bromophenyl)-5-(2′,4′-difluoro-4-hydroxybiphenyl-3-yl)-2,4-dihydro-3H-1,2,4-triazole-3-thione]",145 ± 2.3,145 ± 2.8,43.4 ± 2.72,did not show cytotoxic effects,did not result in apoptosis,,"anticancer activity against PC-3 (in words) [1]: did not show any activity; anticancer activity against HCT-116 (in words) [6]: did not show any activity; anticancer activity against T47D (in words) [2]: demonstrated anticancer activity; apoptosis / necrosis, T47D [8]: vast late apoptosis; also recorded: largely through late apoptosis"
"COc1ccccc1-n1c(-c2cc(-c3ccc(F)cc3F)ccc2O)n[nH]c1=S [Compound 16, 5-(2′,4′-Difluoro-4-hydroxybiphenyl-3-yl)-4-(2-methoxyphenyl)-2,4-dihydro-3H-1,2,4-triazole-3-thione]",53 ± 2.39,169 ± 3.9,27.3 ± 2.28,did not show cytotoxic effects,did not result in apoptosis,,"anticancer activity against HCT-116 (in words) [6]: displayed activity; IC50 [6]: 6.2 ± 3.1 µM; anticancer activity against T47D (in words) [2]: demonstrated anticancer activity; apoptosis / necrosis, HCT116 [9]: extensive apoptotic effect; apoptosis / necrosis, T47D [8]: resulted in necrosis"
